Results as given in patent US8252832B2, “Kinesin inhibitors as cancer therapeutics” (Novartis AG, priority 2007, dated 2012).
Read-outs that look alike come from different tables or passages of the source.

How the values were obtained:
Experiment in all cases: CellTiter-Glo, NCI60 panel
Format in all cases: cell-based
[1] = tested on: DU-145; conditions: Prostate; for GI50: Homo sapiens
In short: (§1)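 Compounds are added to adherent cells after a 24 h attachment period or to non-adherent cells immediately, and plates are incubated 48 h at 37° C. Viability is then read as ATP-driven luciferase luminescence. Data give the concentration needed for half-maximal growth reduction.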

[2] = tested on: MOLT-4; conditions: Leukemia; for GI50: Homo sapiens
In short: as §1

[3] = tested on: SR; conditions: Leukemia; for GI50: Homo sapiens
In short: as §1

[4] = GI50 in nM, read-out: Log(GI50) (converted)

CC(C)(C)[C@H](c1nc(-c2cc(F)ccc2F)cn1Cc1ccccc1)N(CC[C@H](N)CF)C(=O)CO [Compound IIa]
GI50 [1, 4]: 0.435 nM
GI50 ([1]; read-out: GI50): 0.435 nM
Differential vs mean Log(GI50) [1]: 0.693
GI50 [2, 4]: 0.331 nM
GI50 ([2]; read-out: GI50): 0.331 nM
Differential vs mean Log(GI50) [2]: 0.811
GI50 [3, 4]: 0.095 nM
GI50 ([3]; read-out: GI50): 0.095 nM
Differential vs mean Log(GI50) [3]: 1.353
